The Deep4Chem optical property database

Assay: photoluminescence quantum yield (fraction); solvent given as SMILES

Work on COc1ccc2c(c1)CCC1=C(c3ccccc3)C3=Nc4c(-c5ccccc5)c5c(n4[B-](F)(F)[N+]3=C12)-c1ccc(OC)cc1CC5 yielded a photoluminescence quantum yield (in ClC(Cl)Cl) of 0.28.

COC(=O)C(CCCCNC(=O)CCNc1cccc2ccccc12)NC(C)=O (stereo not drawn) showed a photoluminescence quantum yield (in CCO) of 0.54.

Cc1cc(C)c(B2c3cc(C(C)(C)C)ccc3-c3c(-c4ccccc4)ccc4cc(C(C)(C)C)cc2c34)c(C)c1 gave a photoluminescence quantum yield (in C1CCCCC1) of 0.91.

Work on CC(C)CCCC(C)CCN1C(=O)c2ccc3c(-c4ccccc4)c4c5ccc6c7c(ccc(c(-c8ccccc8)c4c4ccc(c2c34)C1=O)c75)C(=O)N(CCC(C)CCCC(C)C)C6=O (stereo not drawn) yielded a photoluminescence quantum yield (in ClCCl) of 0.13.

CCN(CC)c1ccc2c(c1)oc(=O)c1cnc3c(cnn3-c3ccccc3)c12 showed a photoluminescence quantum yield (in C1CCCCC1) of 0.926, a photoluminescence quantum yield (in CCOC(C)=O) of 0.885 and a photoluminescence quantum yield (in CN(C)C=O) of 0.296. It also gave a photoluminescence quantum yield (in CO) of 0.222 and a photoluminescence quantum yield (in ClCCl) of 0.916.

In the case of CCOC(=O)/C=C/C1=C(c2ccc(C)cc2)C2=Nc3c(-c4ccc(C)cc4)c(Br)c(-c4ccc(C)cc4)n3[B-](F)(F)[N+]2=C1c1ccc(C)cc1, the photoluminescence quantum yield (in ClC(Cl)Cl) is reported as 0.03.

CN(C)c1ccc(/C=C/c2cccnn2)cc1 gave a photoluminescence quantum yield (in ClCCl) of 0.02.

Cc1ccc2c(c1)C1(c3ccccc3-c3ccccc31)c1cc(C)ccc1N2c1ccc(-c2ncccn2)cc1 gave a photoluminescence quantum yield (in O=P(c1ccccc1)(c1ccccc1)c1ccc2oc3ccc(P(=O)(c4ccccc4)c4ccccc4)cc3c2c1) of 0.91.

In the case of CCC1=C(C)C2=Cc3c(I)c(I)c(I)n3[B-](F)(F)[N+]2=C1C, the photoluminescence quantum yield (in C1CCCCC1) is reported as 0.065, the photoluminescence quantum yield (in CC(C)=O) is reported as 0.029 and the photoluminescence quantum yield (in CCO) is reported as 0.037. The photoluminescence quantum yield (in CCOC(C)=O) was 0.037, the photoluminescence quantum yield (in CO) was 0.032 and the photoluminescence quantum yield (in OCC(F)(F)F) was 0.021.

Work on CCC1=C(C2=C(C3=C(CC)S(=O)(=O)c4cc(-c5ccc(C(C)=O)s5)ccc43)C(F)(F)C(F)(F)C2(F)F)c2ccc(-c3ccc(C(C)=O)s3)cc2S1(=O)=O yielded a photoluminescence quantum yield (in C1COCCO1) of 0.

Work on COc1nc(Nc2ccc3cc4ccccc4cc3c2)nc(OC)n1 yielded a photoluminescence quantum yield (in C1COCCO1) of 0.45, a photoluminescence quantum yield (in CC#N) of 0.37 and a photoluminescence quantum yield (in CCCCOCCCC) of 0.39. The photoluminescence quantum yield (in CCOC(C)=O) was 0.26.

In the case of c1ccc(C2=C(c3ccccc3)c3cccc4c3c(cc3nc5cc(-c6ccccc6)c(-c6ccccc6)cc5nc34)O2)cc1, the photoluminescence quantum yield (in ClCCl) is reported as 0.86.

Fc1ccc(C#Cc2nc(C#Cc3ccc(F)cc3)c(C#Cc3ccc(F)cc3)c(C#Cc3ccc(F)cc3)c2C#Cc2ccc(F)cc2)cc1 gave a photoluminescence quantum yield (in ClCCl) of 0.47.

With COc1ccc2c3cccc4c(OC)ccc(c5cccc1c52)c43 the photoluminescence quantum yield (in C1CCOC1) was 0.88, the photoluminescence quantum yield (in Cc1ccccc1) was 0.76 and the photoluminescence quantum yield (in ClC(Cl)(Cl)Cl) was 0.05. For the same compound, the photoluminescence quantum yield (in ClC(Cl)Cl) was 0.82, the photoluminescence quantum yield (in ClCCl) was 0.94 and the photoluminescence quantum yield (in c1ccncc1) was 0.9.

For CN(C)c1cccc2c1-c1ccccc1C2=O, the photoluminescence quantum yield (in C1CCCCC1) was 0.075, the photoluminescence quantum yield (in CC#N) was 0.0075 and the photoluminescence quantum yield (in CCO) was 0.00027. For the same compound, the photoluminescence quantum yield (in c1ccccc1) was 0.073.

In the case of Cc1c(COC(=O)c2ccccc2Br)n2c(OCC(=O)c3ccccc3Br)c(C)c(=O)n2c1=O, the photoluminescence quantum yield (in CCO) is reported as 0.841.

Brc1cnc(-c2ccc(N(c3ccccc3)c3ccccc3)cc2)s1 gave a photoluminescence quantum yield (in CO) of 0.04.

For C(=C\c1ccc(N(c2ccccc2)c2ccccc2)cc1)/c1ccc(/C=C/c2ccc(N(c3ccccc3)c3ccccc3)cc2)cc1, the photoluminescence quantum yield (in Cc1ccccc1) was 0.82.

For F[B-]1(F)n2cccc2C(c2ccccc2)=C2C=CC(c3cccc(OC4=[N+]5C(=C(c6ccccc6)c6cc(Br)c(-c7ccc[nH]7)n6[B-]5(F)F)C=C4Br)c3)=[N+]21, the photoluminescence quantum yield (in ClC(Cl)Cl) was 0.18.

For COc1cc(OC)cc(C2=[O+][B-](F)(F)OC(c3cccs3)=C2)c1, the photoluminescence quantum yield (in CC#N) was 0.002, the photoluminescence quantum yield (in CC(C)=O) was 0.01 and the photoluminescence quantum yield (in CCCCCC) was 0.16. The photoluminescence quantum yield (in Cc1ccccc1) was 0.14 and the photoluminescence quantum yield (in ClCCl) was 0.04.

In the case of CC1=[N+]2C(=C(c3c4ccccc4cc4ccccc34)c3ccc(/C=C/C(C)(C)C)n3[B-]2(F)F)C=C1, the photoluminescence quantum yield (in ClC(Cl)Cl) is reported as 0.32.

For CC(=O)OC[C@H]1O[C@@H](OCC#Cc2ccc(C3=C4C(C)=CC(/C=C/c5ccc(N(C)C)cc5)=[N+]4[B-](F)(F)n4c(/C=C/c5ccc(N(C)C)cc5)cc(C)c43)cc2)[C@H](OC(C)=O)C(OC(C)=O)[C@@H]1OC(C)=O (stereo partly drawn), the photoluminescence quantum yield (in CC#N) was 0.2.

CC1=C(C#Cc2ccc([Si](c3ccccc3)(c3ccccc3)c3ccccc3)cc2)C(C)=[N+]2C1=C(c1ccccc1)c1c(C)c(C#Cc3ccc([Si](c4ccccc4)(c4ccccc4)c4ccccc4)cc3)c(C)n1[B-]2(F)F showed a photoluminescence quantum yield (in ClCCl) of 0.15.

For C(=C\c1nc(/C=C/c2ccc(N(c3ccccc3)c3ccccc3)cc2)cc(/C=C/c2ccc(N(c3ccccc3)c3ccccc3)cc2)n1)/c1ccccc1, the photoluminescence quantum yield (in ClCCl) was 0.78.

For COc1ccc(N(c2ccc(OC)cc2)c2cc(N(c3ccc(OC)cc3)c3ccc(OC)cc3)c3ccc4cc(C(C)(C)C)cc5ccc2c3c54)cc1, the photoluminescence quantum yield (in ClCCl) was 0.6.

Work on CCCC1=Cc2nc1ccc1[nH]c(cc1CCC)c1nc(c(NC(=O)CCCC(=O)OC)cc3[nH]c2cc3CCC)C(CCC)=C1 yielded a photoluminescence quantum yield (in Cc1ccccc1) of 0.2.

CCC1=C(C)C2=Cc3c4ccccc4c4n3[B-](c3cc[n+](C)cc3)(Oc3ccccc3-4)[N+]2=C1C=Cc1ccc(OC)cc1 (stereo not drawn) gave a photoluminescence quantum yield (in CO) of 0.21 and a photoluminescence quantum yield (in CS(C)=O) of 0.26.

In the case of CCCCCCCCN1c2ccccc2Sc2cc(/C=C/c3ccc(N(c4ccc(/C=C/c5ccc6c(c5)Sc5ccccc5N6CCCCCCCC)cc4)c4ccc(/C=C/c5ccc(/C=C/c6ccc(N(c7ccc(/C=C/c8ccc9c(c8)Sc8ccccc8N9CCCCCCCC)cc7)c7ccc(/C=C/c8ccc9c(c8)Sc8ccccc8N9CCCCCCCC)cc7)cc6)c6nsnc56)cc4)cc3)ccc21, the photoluminescence quantum yield (in C1CCOC1) is reported as 0.024, the photoluminescence quantum yield (in CCOC(C)=O) is reported as 0.125 and the photoluminescence quantum yield (in CN(C)C=O) is reported as 0.001. It also gave a photoluminescence quantum yield (in Cc1ccccc1) of 0.278, a photoluminescence quantum yield (in ClC(Cl)Cl) of 0.061 and a photoluminescence quantum yield (in ClCCl) of 0.003.

In the case of COC(=O)C1=C(C(=O)OC)C2=C[C@H]3c4ccccc4[C@]2([Se]1)c1ccccc13, the photoluminescence quantum yield (in ClCCl) is reported as 0.86.

In the case of N#CC(C#N)=Cc1ccc2c(c1)c1cc(C=C(C#N)C#N)ccc1n2-c1cccc2ccccc12, the photoluminescence quantum yield (in ClCCl) is reported as 0.07.

For CCN1C(=CC2=C([O-])C(=CC3=[N+](CC)c4ccccc4C3(C)C)C2=O)C(C)(C)c2ccccc21, the photoluminescence quantum yield (in CC(C)O) was 0.09.

With c1ccc2c(-c3ccc4sc5ccccc5c4c3)c3ccccc3cc2c1 the photoluminescence quantum yield (in C1CCCCC1) was 0.52, the photoluminescence quantum yield (in CC#N) was 0.43 and the photoluminescence quantum yield (in ClCCl) was 0.7.

Cc1cc2[nH]c3ccccc3c2c2[nH]c3ccccc3c12 showed a photoluminescence quantum yield (in ClCCl) of 0.223.

CC1(C)c2ccccc2N(c2ccc(-c3nc(-c4ccccn4)n(-c4ccccc4)n3)cc2)c2ccccc21 gave a photoluminescence quantum yield (in ClCCl) of 0.0612.

Work on Clc1ccc(-c2nc3ccccc3c3cc4ccccn4c23)s1 yielded a photoluminescence quantum yield (in CS(C)=O) of 0.11.

Compound CC(C)(C)c1ccc2c(c1)c1cc(C(C)(C)C)ccc1n2-c1ccc(C#Cc2ccc(C#Cc3ccc(-n4c5ccc(C(C)(C)C)cc5c5cc(C(C)(C)C)ccc54)cc3)cc2)cc1 has a photoluminescence quantum yield (in CC#N) of 0.67, a photoluminescence quantum yield (in CCCCC) of 0.89 and a photoluminescence quantum yield (in CO) of 0.41. The photoluminescence quantum yield (in Cc1ccccc1) was 0.86, the photoluminescence quantum yield (in ClC(Cl)Cl) was 0.69 and the photoluminescence quantum yield (in ClCCl) was 0.89.

With CC/[NH+]=c1\cc2oc3cc(NCCC(=O)NCC(=O)OC)c4ccccc4c3nc-2cc1C the photoluminescence quantum yield (in CCO) was 0.37 and the photoluminescence quantum yield (in O) was 0.45.

Work on O=S1(=O)c2ccc(-c3ccc(N(c4ccccc4)c4ccccc4)cc3)cc2C2(c3ccccc3-c3ccccc32)c2cc(-c3ccc(N(c4ccccc4)c4ccccc4)cc3)ccc21 yielded a photoluminescence quantum yield (in ClCCl) of 0.89.

For Cn1cc(-c2nc3ccccc3nc2C#Cc2ccc(C#N)cc2)c2ccccc21, the photoluminescence quantum yield (in ClCCl) was 0.15.

With Cc1ccc(OCc2cc(=O)oc3c2ccc2ccccc23)cc1 the photoluminescence quantum yield (in C1CCOC1) was 0.0561, the photoluminescence quantum yield (in C1COCCO1) was 0.0665 and the photoluminescence quantum yield (in CC#N) was 0.0506. The photoluminescence quantum yield (in CC(C)=O) was 0.0465, the photoluminescence quantum yield (in CCCCO) was 0.0333 and the photoluminescence quantum yield (in CCCO) was 0.0312. It also gave a photoluminescence quantum yield (in CCO) of 0.028, a photoluminescence quantum yield (in CCOC(C)=O) of 0.0471 and a photoluminescence quantum yield (in CN(C)C=O) of 0.0576. The photoluminescence quantum yield (in CO) was 0.0265, the photoluminescence quantum yield (in Cc1ccccc1) was 0.0798 and the photoluminescence quantum yield (in ClCCl) was 0.0584.

Compound C=CC1CN2CCC1CC2[C@H](O)c1ccnc2ccc(OC)cc12 (stereo partly drawn) has a photoluminescence quantum yield (in O) of 0.546.

N#Cc1ccccc1N1c2ccccc2C(c2ccccc2)(c2ccccc2)c2ccccc21 showed a photoluminescence quantum yield (in Cc1ccccc1) of 0.33.

Work on O=c1[nH]c(=O)c2nc3ccccc3nc2[nH]1 yielded a photoluminescence quantum yield (in CC#N) of 0.009.

With Clc1ccc(N2c3sc4ccccc4c3Sc3c2sc2ccccc32)cc1 the photoluminescence quantum yield (in ClCCl) was 0.18.

Compound O=C1c2ccc3c4ccc5c6c(ccc(c7ccc(c2c37)C(=O)N1c1ccncc1)c64)C(=O)N(c1ccncc1)C5=O has a photoluminescence quantum yield (in C1CCOC1) of 0.508, a photoluminescence quantum yield (in C1COCCO1) of 0.847 and a photoluminescence quantum yield (in CC(C)=O) of 0.758. It also gave a photoluminescence quantum yield (in CC(C)O) of 0.454, a photoluminescence quantum yield (in CCCCO) of 0.46 and a photoluminescence quantum yield (in CCO) of 0.201. For the same compound, the photoluminescence quantum yield (in CCOC(C)=O) was 0.337, the photoluminescence quantum yield (in CN(C)C=O) was 0.438 and the photoluminescence quantum yield (in CO) was 0.206. The photoluminescence quantum yield (in CS(C)=O) was 0.057, the photoluminescence quantum yield (in ClC(Cl)(Cl)Cl) was 0.97 and the photoluminescence quantum yield (in ClC(Cl)Cl) was 0.97.

For COc1ccc(-c2nc(C)cc(-c3ccc(-n4c5ccccc5c5ccccc54)cc3)n2)cc1, the photoluminescence quantum yield (in C1CCOC1) was 0.47, the photoluminescence quantum yield (in CN(C)C=O) was 0.68 and the photoluminescence quantum yield (in Cc1ccccc1) was 0.46. The photoluminescence quantum yield (in ClC(Cl)Cl) was 0.65.

O=C(c1ccncc1)c1ccc(-n2c3ccccc3c3cc(-n4c5ccccc5c5ccccc54)ccc32)cc1 showed a photoluminescence quantum yield (in Cc1ccccc1) of 0.178 and a photoluminescence quantum yield (in c1cc(-c2cccc(-n3c4ccccc4c4ccccc43)c2)cc(-n2c3ccccc3c3ccccc32)c1) of 0.72.

COc1ccc(-c2c3cc4ccccc4cc3c(-c3ccc(OC)cc3)c3cc4ccccc4cc23)cc1 showed a photoluminescence quantum yield (in ClCCl) of 0.09.

In the case of CC(=O)O[B-]1(OC(C)=O)OC(/C=C/c2ccc(C)cc2)=CC(/C=C/c2ccc(C)cc2)=[O+]1, the photoluminescence quantum yield (in C1CCOC1) is reported as 0.75, the photoluminescence quantum yield (in CC#N) is reported as 0.55 and the photoluminescence quantum yield (in CC(C)=O) is reported as 0.58. For the same compound, the photoluminescence quantum yield (in CS(C)=O) was 0.51, the photoluminescence quantum yield (in Cc1ccccc1) was 0.88 and the photoluminescence quantum yield (in ClC(Cl)Cl) was 0.63. The photoluminescence quantum yield (in ClCCl) was 0.56.

Compound CCn1c2ccccc2c2cc(/C=C/c3cccc[n+]3CCCS(=O)(=O)[O-])ccc21 has a photoluminescence quantum yield (in C1CCOC1) of 0.09, a photoluminescence quantum yield (in CC#N) of 0.03 and a photoluminescence quantum yield (in CC(C)=O) of 0.03. For the same compound, the photoluminescence quantum yield (in Cc1ccccc1) was 0.06.
